From ChEMBL document CHEMBL4138135, “Optimization of physicochemical properties for 4-anilinoquinazoline inhibitors of trypanosome proliferation” (Eur J Med Chem, 2017)

Experiments:
[1] = Lipophilicity, log P of the compound; type: physicochemical; settings: octanol/water
[2] = Distribution coefficient, log D of the compound at pH 7.4; type: physicochemical; settings: octanol/water

| logP ([1]; read-out: logP) | logD ([2]; read-out: logD) | logP [1] | logD [2] | SMILES |
| --- | --- | --- | --- | --- |
| 2.8 |  |  |  | c1cc(-c2ccc3ncnc(Nc4nccnn4)c3c2)cc(N2CCOCC2)c1 |
| 3.7 | 3.1 |  |  | c1cc(-c2ccc3ncnc(Nc4ccncn4)c3c2)cc(N2CCOCC2)c1 |
| 3.6 | 3.8 |  |  | COc1cnc(Nc2ncnc3ccc(-c4cccc(N5CCOCC5)c4)cc23)cn1 |
| 3.8 |  |  |  | c1cc(-c2ccc3ncnc(Nc4cncs4)c3c2)cc(N2CCOCC2)c1 |
| 4.7 | 4.5 |  |  | O=C(CN1CCOCC1)Nc1ccc2ncnc(Nc3ccc(OCc4cccc(F)c4)c(Cl)c3)c2c1 |
| 5.3 |  |  |  | Fc1cccc(COc2ccc(Nc3ncnc4ccc(-c5nnc(N6CCOCC6)[nH]5)cc34)cc2Cl)c1 |
|  |  | 2.9 | 3.8 | c1cc(Nc2ncnc3ccc(-c4ccnc(N5CCOCC5)n4)cc23)ccn1 |
|  |  | 2.8 | 3.1 | c1cc(-c2ccc3ncnc(Nc4ccnnc4)c3c2)cc(N2CCOCC2)c1 |
| 3.6 |  |  |  | c1cc(-c2ccc3ncnc(Nc4ncco4)c3c2)cc(N2CCOCC2)c1 |
| 3.8 | 4.1 |  |  | c1cc(-c2ccc3ncnc(Nc4ccncc4)c3c2)cc(N2CCOCC2)c1 |
| 3.4 | 3 |  |  | c1cc(-c2ccc3ncnc(Nc4cccnn4)c3c2)cc(N2CCOCC2)c1 |
| 3.5 |  |  |  | c1cc(-c2ccc3ncnc(Nc4nncs4)c3c2)cc(N2CCOCC2)c1 |
| 5.1 |  |  |  | Fc1cccc(COc2ccc(Nc3ncnc4ccc(-n5nncc5CN5CCOCC5)cc34)cc2Cl)c1 |
|  |  | 3 | 3.4 | c1cc(Nc2ncnc3ccc(-c4nccc(N5CCOCC5)n4)cc23)ccn1 |
| 3.9 | 2.9 |  |  | Cc1ccnc(Nc2ncnc3ccc(-c4cccc(N5CCOCC5)c4)cc23)n1 |
| 3.5 | 2.8 |  |  | Nc1cccnc1Nc1ncnc2ccc(-c3cccc(N4CCOCC4)c3)cc12 |

Second part, the compound before the results:

| SMILES | logP ([1]; read-out: logP) | logD ([2]; read-out: logD) | logP [1] | logD [2] |
| --- | --- | --- | --- | --- |
| Cc1cc(Nc2ncnc3ccc(-c4cccc(N5CCOCC5)c4)cc23)on1 | 3.6 |  |  |  |
| Nc1ncccc1Nc1ncnc2ccc(-c3cccc(N4CCOCC4)c3)cc12 | 3.5 | 2.9 |  |  |
| O=c1nc(Nc2ncnc3ccc(-c4cccc(N5CCOCC5)c4)cc23)cc[nH]1 | 2.5 |  |  |  |
| c1cnc(Nc2ncnc3ccc(-c4cccc(N5CCOCC5)c4)cc23)nc1 | 3.8 | 2.5 |  |  |
| Cc1nnc(Nc2ncnc3ccc(-c4cccc(N5CCOCC5)c4)cc23)nc1C | 3 | 2.8 |  |  |
| O=c1nc(Nc2ncnc3ccc(-c4cccc(N5CCOCC5)c4)cc23)c(F)c[nH]1 | 2.7 | 2.2 |  |  |
| Fc1cccc(COc2ccc(Nc3ncnc4ccc(-c5nccc(N6CCOCC6)n5)cc34)cc2Cl)c1 | 6.5 |  |  |  |
| Fc1cccc(COc2ccc(Nc3ncnc4ccc(-c5ccnc(N6CCOCC6)n5)cc34)cc2Cl)c1 | 6.5 |  |  |  |
| c1cnc(Nc2ncnc3ccc(-c4nccc(N5CCOCC5)n4)cc23)nc1 | 2.9 | 2 |  |  |
| c1ccc(Nc2ncnc3ccc(-c4cccc(N5CCOCC5)c4)cc23)nc1 | 4.4 | 3.9 |  |  |
| c1cc(-c2ccc3ncnc(Nc4cnccn4)c3c2)cc(N2CCOCC2)c1 | 3.2 | 3.1 |  |  |
| CC(=O)Nc1cccnc1Nc1ncnc2ccc(-c3cccc(N4CCOCC4)c3)cc12 | 3.6 | 3.2 |  |  |
| Cc1cnc(Nc2ncnc3ccc(-c4cccc(N5CCOCC5)c4)cc23)s1 | 5 |  |  |  |
| COc1ccc(Nc2ncnc3ccc(-c4cccc(N5CCOCC5)c4)cc23)cc1Cl | 5.4 |  |  |  |
| c1cc(-c2ccc3ncnc(Nc4cncnc4)c3c2)cc(N2CCOCC2)c1 | 3.1 | 3.2 |  |  |
| c1cncc(Nc2ncnc3ccc(-c4cccc(N5CCOCC5)c4)cc23)c1 | 3.8 | 3.9 |  |  |
| Cc1cnnc(Nc2ncnc3ccc(-c4cccc(N5CCOCC5)c4)cc23)c1 | 3.9 |  |  |  |
| c1cnc(Nc2ncnc3ccc(-c4ccnc(N5CCOCC5)n4)cc23)nc1 | 2.9 | 2.5 |  |  |
| c1cc(-c2ccc3ncnc(Nc4nccs4)c3c2)cc(N2CCOCC2)c1 | 4.3 |  |  |  |
| CCn1nccc1Nc1ncnc2ccc(-c3cccc(N4CCOCC4)c3)cc12 | 3.9 | 3.2 |  |  |
